Test results from patent US7138361B2, “Herbicidal heterocycles” (E. I. du Pont de Nemours and Company, priority 2000, dated 2006).

How the values were obtained:
Format in all cases: in vivo
[1] = test system: Surinam grass (Brachiaria decumbens); assay: Test B postemergence; conditions: 13 to 15 days
From the text: (§1) Seeds selected from barnyardgrass (Echinochloa crus-galli), Surinam grass (Brachiaria decumbens), cocklebur (Xanthium strumarium), corn (Zea mays), crabgrass (Digitaria sanguinalis), giant foxtail (Setaria faberii), lambsquarters (Chenopodium album), morning glory (Ipomoea hederacea), pigweed (Amaranthus retroflexus), rice (Oryza saliva) and velvetleaf (Abutilon theophrasti) were planted and treated preemergence with test chemicals formulated in a non-phytotoxic solvent mixture which included a surfactant.
(§2) At the same time, plants selected from these crop and weed species and also blackgrass (Alopecurus myosuroides), wheat (Triticum aestivum) and wild oat (Avena fatua) were treated with postemergence applications of test chemicals formulated in the same manner. Plants ranged in height from 2 to 18 cm (1- to 4-leaf stage) for postemergence treatments. Plant species in the flooded paddy test consisted of rice (Oryza saliva), smallflower flatsedge (Cyperus difformis), duck salad (Heteranthera limosa) and barnyardgrass (Echinochloa crus-galli) grown to the 2-leaf stage for testing. Treated plants and controls were maintained in a greenhouse for 13 to 15 days, after which time all species were compared to controls and visually evaluated. Plant response ratings, summarized in Table B, are based on a scale of 0 to 100 where 0 is no effect and 100 is complete control. A dash (-) response means no test result.

[2] = test system: barnyardgrass (Echinochloa crus-galli); assay: Test B postemergence; conditions: 13 to 15 days
From the text: as §1, §2

[3] = test system: blackgrass (Alopecurus myosuroides); assay: Test B postemergence; conditions: 13 to 15 days
From the text: as §1, §2

corn (Zea mays) [4] = assay: Test B postemergence; conditions: 13 to 15 days
From the text: as §1, §2

[5] = test system: crabgrass (Digitaria sanguinalis); assay: Test B postemergence; conditions: 13 to 15 days
From the text: as §1, §2

[6] = test system: giant foxtail (Setaria faberii); assay: Test B postemergence; conditions: 13 to 15 days
From the text: as §1, §2

[7] = test system: lambsquarters (Chenopodium album); assay: Test B postemergence; conditions: Rate 500 g/ha, scale 0 to 100, 0 is no effect, 100 is complete control, 13 to 15 days
From the text: as §1, §2

[8] = test system: morning glory (Ipomoea hederacea); assay: Test B postemergence; conditions: Rate 500 g/ha, scale 0 to 100, 0 is no effect, 100 is complete control, 13 to 15 days
From the text: as §1, §2

[9] = test system: pigweed (Amaranthus retroflexus); assay: Test B postemergence; conditions: Rate 500 g/ha, scale 0 to 100, 0 is no effect, 100 is complete control, 13 to 15 days
From the text: as §1, §2

[10] = test system: velvetleaf (Abutilon theophrasti); assay: Test B postemergence; conditions: Rate 500 g/ha, scale 0 to 100, 0 is no effect, 100 is complete control, 13 to 15 days
From the text: as §1, §2

[11] = test system: wheat (Triticum aestivum); assay: Test B postemergence; conditions: Rate 500 g/ha, scale 0 to 100, 0 is no effect, 100 is complete control, 13 to 15 days
From the text: as §1, §2

wild oat (Avena fatua) = assay: Test B postemergence; conditions: Rate 500 g/ha, scale 0 to 100, 0 is no effect, 100 is complete control, 13 to 15 days
From the text: as §1, §2

[12] = test system: Surinam grass (Brachiaria decumbens); assay: Test B preemergence
From the text: as §1, §2

[13] = test system: barnyardgrass (Echinochloa crus-galli); assay: Test B preemergence
From the text: as §1, §2

[14] = test system: cocklebur (Xanthium strumarium); assay: Test B preemergence
From the text: as §1, §2

corn (Zea mays) [15] = assay: Test B preemergence
From the text: as §1, §2

[16] = test system: crabgrass (Digitaria sanguinalis); assay: Test B preemergence
From the text: as §1, §2

[17] = test system: giant foxtail (Setaria faberii); assay: Test B preemergence
From the text: as §1, §2

[18] = test system: lambsquarters (Chenopodium album); assay: Test B preemergence
From the text: as §1, §2

[19] = test system: morning glory (Ipomoea hederacea); assay: Test B preemergence
From the text: as §1, §2

[20] = test system: pigweed (Amaranthus retroflexus); assay: Test B preemergence
From the text: as §1, §2

rice (Oryza saliva) [21] = assay: Test B preemergence
From the text: as §1, §2

[22] = test system: velvetleaf (Abutilon theophrasti); assay: Test B preemergence
From the text: as §1, §2

[23] = test system: barnyardgrass (Echinochloa crus-galli); assay: Test C flooded paddy test; conditions: for Barnyardgrass plant response rating: Flooded Paddy, scale 0 to 100, 0 no effect, 100 complete control; for Plant response rating, Barnyardgrass: flooded paddy test, scale 0 to 100 (0 no effect, 100 complete control)
Method: (§3) At the same time, plants selected from these crop and weed species and also winter barley (Hordeum vulgare), blackgrass (Alopecurus myosuroides), canary grass (Phalaris minor), chickweed (Stellaria media), downy brome (Bromus tectorum), green foxtail (Setaria viridis), Italian ryegrass (Lolium multiflorum), wheat (Triticum aestivum), wild oat (Avena fatua) and windgrass (Apera spica-venti) were treated with postemergence applications of some of the test chemicals formulated in the same manner. Plants ranged in height from 2 to 18 cm (1- to 4-leaf stage) for postemergence treatments. Plant species in the flooded paddy test consisted of rice (Oryza saliva), smallflower flatsedge (Cyperus difformis), duck salad (Heteranthera limosa) and barnyardgrass (Echinochloa crus-galli) grown to the 2-leaf stage for testing. Treated plants and controls were maintained in a greenhouse for 12 to 14 days, after which time all species were compared to controls and visually evaluated. Plant response ratings, summarized in Table C, are based on a scale of 0 to 100 where 0 is no effect and 100 is complete control. A dash (-) response means no test result.

[24] = test system: duck salad (Heteranthera limosa); assay: Test C flooded paddy test; conditions: for Ducksalad plant response rating: Flooded Paddy, scale 0 to 100, 0 no effect, 100 complete control; for Plant response rating, Ducksalad: flooded paddy test, scale 0 to 100 (0 no effect, 100 complete control)
Method: as §3

rice (Oryza saliva) [25] = assay: Test C flooded paddy test; conditions: for Rice plant response rating: Flooded Paddy, scale 0 to 100, 0 no effect, 100 complete control; for Plant response rating, Rice: flooded paddy test, scale 0 to 100 (0 no effect, 100 complete control)
Method: as §3

[26] = test system: smallflower flatsedge (Cyperus difformis); assay: Test C flooded paddy test; conditions: for Flatsedge plant response rating: Flooded Paddy, scale 0 to 100, 0 no effect, 100 complete control; for Plant response rating, Flatsedge: flooded paddy test, scale 0 to 100 (0 no effect, 100 complete control)
Method: as §3

[27] = Rate 125 g/ha, scale 0 (no effect) to 100 (complete control)
[28] = Rate 500 g/ha, scale 0 to 100, 0 is no effect, 100 is complete control
[29] = Preemergence, Rate 500 g/ha, scale 0 to 100, 0 no effect, 100 complete control
[30] = preemergence, Rate 125 g/ha, scale of 0 to 100 where 0 is no effect and 100 is complete control, 13 to 15 days

## CC(C)(C)c1ccn(C2CCN(c3cccc(S(C)(=O)=O)c3)C2=O)n1 (stereo not drawn) [Compound 102]
[1]; [27]
  Plant response rating, Surinam grass: 0
[1]; [28]
  Plant response rating, Surinam grass: 0
[2]; [27]
  Plant response rating, Barnyardgrass: 0
[2]; [28]
  Plant response rating, Barnyardgrass: 0
[3]; [27]
  Plant response rating, Blackgrass: 0
[3]; [28]
  Plant response rating, Blackgrass: 0
Corn (Zea mays) [4]; [27]
  Plant response rating, Corn: 0
Corn (Zea mays) [4]; [28]
  Plant response rating, Corn: 0
[5]; [27]
  Plant response rating, Crabgrass: 0
[5]; [28]
  Plant response rating, Crabgrass: 0
[6]; [27]
  Plant response rating, Foxtail, Giant: 0
[6]; [28]
  Plant response rating, Foxtail, Giant: 0
[7]
  Plant response rating, Lambsquarters: 0
[8]
  Plant response rating, Morningglory: 0
[9]
  Plant response rating, Pigweed: 0
[10]
  Plant response rating, Velvetleaf: 0
[11]
  Plant response rating, Wheat: 0
Wild oat (Avena fatua)
  Plant response rating, Wild Oat: 0
[12]; [29]
  Plant response rating, Surinam grass: 0
[12]; [30]
  Plant response rating, Surinam grass: 0
[13]; [29]
  Plant response rating, Barnyardgrass: 0
[13]; [30]
  Plant response rating, Barnyardgrass: 0
[14]; [29]
  Plant response rating, Cocklebur: 0
[14]; [30]
  Plant response rating, Cocklebur: 0
Corn (Zea mays) [15]; [29]
  Plant response rating, Corn: 0
Corn (Zea mays) [15]; [30]
  Plant response rating, Corn: 0
[16]; [29]
  Plant response rating, Crabgrass: 90
[16]; [30]
  Plant response rating, Crabgrass: 0
[17]; [29]
  Plant response rating, Foxtail, Giant: 0
[17]; [30]
  Plant response rating, Foxtail, Giant: 0
[18]; [29]
  Plant response rating, Lambsquarters: 0
[18]; [30]
  Plant response rating, Lambsquarters: 0
[19]; [29]
  Plant response rating, Morningglory: 0
[19]; [30]
  Plant response rating, Morningglory: 0
[20]; [29]
  Plant response rating, Pigweed: 0
[20]; [30]
  Plant response rating, Pigweed: 0
Rice (Oryza saliva) [21]; [29]
  Plant response rating, Rice: 0
Rice (Oryza saliva) [21]; [30]
  Plant response rating, Rice: 0
[22]; [29]
  Plant response rating, Velvetleaf: 0
[22]; [30]
  Plant response rating, Velvetleaf: 0
[23]; Rate 250 g/ha
  Barnyardgrass plant response rating: 0
[23]; Rate 500 g/ha
  Barnyardgrass plant response rating: 0
[23]; Rate 62 g/ha
  Plant response rating, Barnyardgrass: 0
[23]; Rate 125 g/ha
  Plant response rating, Barnyardgrass: 0
[24]; Rate 250 g/ha
  Ducksalad plant response rating: 0
[24]; Rate 500 g/ha
  Ducksalad plant response rating: 0
[24]; Rate 62 g/ha
  Plant response rating, Ducksalad: 0
[24]; Rate 125 g/ha
  Plant response rating, Ducksalad: 0
Rice (Oryza saliva) [25]; Rate 250 g/ha
  Rice plant response rating: 0
Rice (Oryza saliva) [25]; Rate 500 g/ha
  Rice plant response rating: 0
Rice (Oryza saliva) [25]; Rate 62 g/ha
  Plant response rating, Rice: 0
Rice (Oryza saliva) [25]; Rate 125 g/ha
  Plant response rating, Rice: 0
[26]; Rate 250 g/ha
  Flatsedge plant response rating: 30
[26]; Rate 500 g/ha
  Flatsedge plant response rating: 60
[26]; Rate 62 g/ha
  Plant response rating, Flatsedge: 0
[26]; Rate 125 g/ha
  Plant response rating, Flatsedge: 30

## CCCCC(C)c1ccn(C2SCN(c3cccc(C(F)(F)F)c3)C2=O)n1 (stereo not drawn) [Compound 103]
[1]; [27]
  Plant response rating, Surinam grass: 0
[1]; [28]
  Plant response rating, Surinam grass: 0
[2]; [27]
  Plant response rating, Barnyardgrass: 0
[2]; [28]
  Plant response rating, Barnyardgrass: 0
[3]; [27]
  Plant response rating, Blackgrass: 0
[3]; [28]
  Plant response rating, Blackgrass: 0
Corn (Zea mays) [4]; [27]
  Plant response rating, Corn: 0
Corn (Zea mays) [4]; [28]
  Plant response rating, Corn: 0
[5]; [27]
  Plant response rating, Crabgrass: 0
[5]; [28]
  Plant response rating, Crabgrass: 0
[6]; [27]
  Plant response rating, Foxtail, Giant: 0
[6]; [28]
  Plant response rating, Foxtail, Giant: 0
[7]
  Plant response rating, Lambsquarters: 50
[8]
  Plant response rating, Morningglory: 0
[9]
  Plant response rating, Pigweed: 0
[10]
  Plant response rating, Velvetleaf: 0
[11]
  Plant response rating, Wheat: 0
Wild oat (Avena fatua)
  Plant response rating, Wild Oat: 0
[12]; [29]
  Plant response rating, Surinam grass: 0
[12]; [30]
  Plant response rating, Surinam grass: 0
[13]; [29]
  Plant response rating, Barnyardgrass: 0
[13]; [30]
  Plant response rating, Barnyardgrass: 0
[14]; [29]
  Plant response rating, Cocklebur: 0
[14]; [30]
  Plant response rating, Cocklebur: 0
Corn (Zea mays) [15]; [29]
  Plant response rating, Corn: 0
Corn (Zea mays) [15]; [30]
  Plant response rating, Corn: 0
[16]; [29]
  Plant response rating, Crabgrass: 60
[16]; [30]
  Plant response rating, Crabgrass: 0
[17]; [29]
  Plant response rating, Foxtail, Giant: 0
[17]; [30]
  Plant response rating, Foxtail, Giant: 0
[18]; [29]
  Plant response rating, Lambsquarters: 100
[18]; [30]
  Plant response rating, Lambsquarters: 100
[19]; [29]
  Plant response rating, Morningglory: 0
[19]; [30]
  Plant response rating, Morningglory: 0
[20]; [29]
  Plant response rating, Pigweed: 0
[20]; [30]
  Plant response rating, Pigweed: 0
Rice (Oryza saliva) [21]; [29]
  Plant response rating, Rice: 0
Rice (Oryza saliva) [21]; [30]
  Plant response rating, Rice: 0
[22]; [29]
  Plant response rating, Velvetleaf: 0
[22]; [30]
  Plant response rating, Velvetleaf: 0
[23]; Rate 250 g/ha
  Barnyardgrass plant response rating: 20
[23]; Rate 500 g/ha
  Barnyardgrass plant response rating: 40
[23]; Rate 62 g/ha
  Plant response rating, Barnyardgrass: 0
[23]; Rate 125 g/ha
  Plant response rating, Barnyardgrass: 0
[24]; Rate 250 g/ha
  Ducksalad plant response rating: 0
[24]; Rate 500 g/ha
  Ducksalad plant response rating: 90
[24]; Rate 62 g/ha
  Plant response rating, Ducksalad: 0
[24]; Rate 125 g/ha
  Plant response rating, Ducksalad: 0
Rice (Oryza saliva) [25]; Rate 250 g/ha
  Rice plant response rating: 20
Rice (Oryza saliva) [25]; Rate 500 g/ha
  Rice plant response rating: 20
Rice (Oryza saliva) [25]; Rate 62 g/ha
  Plant response rating, Rice: 0
[26]; Rate 250 g/ha
  Flatsedge plant response rating: 100
[26]; Rate 500 g/ha
  Flatsedge plant response rating: 100
[26]; Rate 62 g/ha
  Plant response rating, Flatsedge: 0
[26]; Rate 125 g/ha
  Plant response rating, Flatsedge: 80
